Measured values reported in article PMC12238238, “Identification of gut bacteria reductases that biotransform steroid hormones” (Nature Communications, 2025).

Tests used:
[1] = biological target: T1, ci2350 (Δ4-3-ketosteroid 5β-reductase); assay: isothermal titration calorimetry; type: binding, [Clostridium] innocuum; settings: 0.1 M sodium phosphate, 0.2 M NaCl, 20 mM BME, 0.5 mM CHAPS, pH 6.5, 25 °C; independent model, single site
T1 construct: recombinant in E. coli, Ni HisTrap purified (pET28a/kanamycin); mutants assayed in E. coli cells

[2] = biological target: T2, baiH ([Clostridium] scindens, UniProt P32370); assay: LC-MS of products in E. coli expressing the gene; type: cell-based; settings: whole E. coli cells, anaerobic, 1 mg/100 mL steroid, 48 h, 37 °C; product progesterone
T2 construct: expressed in E. coli, whole-cell biotransformation
T2 sequence (P32370 1-661): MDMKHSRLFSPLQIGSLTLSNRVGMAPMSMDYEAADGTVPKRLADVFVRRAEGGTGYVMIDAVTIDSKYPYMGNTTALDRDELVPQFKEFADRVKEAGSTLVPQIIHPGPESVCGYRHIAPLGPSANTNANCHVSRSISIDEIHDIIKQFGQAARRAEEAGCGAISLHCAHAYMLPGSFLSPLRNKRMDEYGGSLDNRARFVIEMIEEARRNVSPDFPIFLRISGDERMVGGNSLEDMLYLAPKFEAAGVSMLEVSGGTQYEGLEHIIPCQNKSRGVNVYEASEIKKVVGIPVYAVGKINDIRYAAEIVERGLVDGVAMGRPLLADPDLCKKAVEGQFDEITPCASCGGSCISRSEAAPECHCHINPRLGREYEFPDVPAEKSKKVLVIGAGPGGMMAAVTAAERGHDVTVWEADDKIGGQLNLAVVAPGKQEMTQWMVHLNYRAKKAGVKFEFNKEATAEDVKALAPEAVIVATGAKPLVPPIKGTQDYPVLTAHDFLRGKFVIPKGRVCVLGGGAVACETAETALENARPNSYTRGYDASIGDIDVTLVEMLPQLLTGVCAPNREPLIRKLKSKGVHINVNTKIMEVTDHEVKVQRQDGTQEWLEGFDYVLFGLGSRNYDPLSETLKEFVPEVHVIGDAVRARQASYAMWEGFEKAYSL

[3] = biological target: T3, dw0523 (3β-HSDH/I) (Dysosmobacter welbionis, UniProt A0A4D7AXI1); assay: LC-MS of products in E. coli expressing the gene; type: cell-based; settings: whole E. coli cells, anaerobic, 1 mg/100 mL steroid, 48 h, 37 °C; product progesterone
T3 construct: gene EIO64_02590; expressed in E. coli, whole-cell biotransformation; separate (unfused) 3β-HSDH/I gene
T3 sequence (A0A4D7AXI1 1-497): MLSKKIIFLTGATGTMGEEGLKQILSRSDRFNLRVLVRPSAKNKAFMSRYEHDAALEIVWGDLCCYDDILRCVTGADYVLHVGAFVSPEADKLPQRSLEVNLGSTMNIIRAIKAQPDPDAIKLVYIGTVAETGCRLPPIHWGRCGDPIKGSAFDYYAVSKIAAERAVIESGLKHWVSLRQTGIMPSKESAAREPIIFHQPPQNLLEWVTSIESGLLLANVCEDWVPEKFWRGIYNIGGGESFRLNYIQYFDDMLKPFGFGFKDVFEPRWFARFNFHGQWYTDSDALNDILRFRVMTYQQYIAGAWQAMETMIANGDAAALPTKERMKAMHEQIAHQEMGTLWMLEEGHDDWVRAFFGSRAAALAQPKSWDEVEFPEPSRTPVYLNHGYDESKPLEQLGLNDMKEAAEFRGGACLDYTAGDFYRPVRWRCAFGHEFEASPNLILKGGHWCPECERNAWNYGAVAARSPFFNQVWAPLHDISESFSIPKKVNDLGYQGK

[4] = biological target: T4, baiCD ([Clostridium] scindens, UniProt P19410); assay: LC-MS of products in E. coli expressing the gene; type: cell-based; settings: whole E. coli cells, anaerobic, 1 mg/100 mL steroid, 48 h, 37 °C; product 5β-dihydroprogesterone
T4 construct: expressed in E. coli, whole-cell biotransformation
T4 sequence (P19410 1-639): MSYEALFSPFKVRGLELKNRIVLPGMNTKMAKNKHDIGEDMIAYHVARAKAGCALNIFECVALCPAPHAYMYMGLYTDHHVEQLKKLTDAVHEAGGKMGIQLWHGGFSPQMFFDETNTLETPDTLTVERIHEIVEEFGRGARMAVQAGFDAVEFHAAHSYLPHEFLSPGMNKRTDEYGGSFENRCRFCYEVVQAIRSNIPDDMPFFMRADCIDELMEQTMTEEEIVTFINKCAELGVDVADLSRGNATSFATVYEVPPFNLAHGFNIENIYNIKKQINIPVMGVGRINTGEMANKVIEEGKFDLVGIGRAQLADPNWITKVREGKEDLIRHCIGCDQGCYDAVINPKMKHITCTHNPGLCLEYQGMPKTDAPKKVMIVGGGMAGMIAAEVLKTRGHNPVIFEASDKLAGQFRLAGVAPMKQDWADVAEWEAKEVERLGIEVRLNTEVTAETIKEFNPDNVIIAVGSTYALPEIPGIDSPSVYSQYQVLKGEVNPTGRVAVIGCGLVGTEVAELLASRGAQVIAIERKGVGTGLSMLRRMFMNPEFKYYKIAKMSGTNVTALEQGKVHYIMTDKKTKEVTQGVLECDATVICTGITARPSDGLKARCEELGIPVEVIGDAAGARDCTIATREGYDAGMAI

| SMILES | Kd [1] [nM] | LC-MS of products in E. coli expressing the gene [2] | LC-MS of products in E. coli expressing the gene [3] | LC-MS of products in E. coli expressing the gene [4] |
| --- | --- | --- | --- | --- |
| CC(=O)[C@H]1CC[C@H]2[C@@H]3C=CC4=CC(=O)CC[C@]4(C)[C@H]3CC[C@]12C [6-dehydroprogesterone] | 594 | only partial conversion of the substrate by C. scindens baiH | – | – |
| C[C@]12CCC(=O)C=C1CC[C@@H]1[C@@H]2C(=O)C[C@@]2(C)[C@H]1CC[C@]2(O)C(=O)CO [cortisone] | 759 | – | – | – |
| C[C@]12CCC(=O)C=C1CC[C@@H]1[C@@H]2[C@@H](O)C[C@@]2(C)[C@H]1CC[C@]2(O)C(=O)CO [hydrocortisone] | 668 | – | – | – |
| CC(=O)[C@H]1CC[C@H]2[C@@H]3CC=C4C[C@@H](O)CC[C@]4(C)[C@H]3CC[C@]12C [pregnenolone] | – | – | with dw0523 producing only progesterone | – |
| CC(=O)[C@H]1CC[C@H]2[C@@H]3CCC4=CC(=O)CC[C@]4(C)[C@H]3CC[C@]12C [progesterone] | 432 | – | – | baiCD had limited, but detectable, reduction of progesterone |
